In patent US20230212549A1, “COMPOUNDS COMPRISING A […] LIGAND AND USE THEREOF” (priority 2021, published 2023):
Values belong to the compound of their own block, whether it stands above or below them. Numbered stars: 1 amine (or outer) side, 2 acyl side, 3 side chain; on linkers, the order of the positions; unused ones are H or OH. Bridge positions count the residues as written; N and C are the ends. Square brackets hold non-standard residues; d marks the D form. Peptide text beside a SMILES is read from it. * marks the point of attachment. ξ: configuration not given here. X7 = O=C(CCP(=O)(O)CN1CCN(CP(=O)(O)CO)CCN(CP(=O)(O)CO)CC1)NCCSCc1cc(C[*:1])cc(C[*:2])c1; CO = O=C([*:1])[*:2]; ξC = NC(CS)C(=O)O; NHBu = CCCCN*

Experiments:
Human recombinant FAP [1] = molecular target: T1, Human recombinant FAP (Homo sapiens, UniProt Q12884); assay: Surface plasmon resonance (Biacore) assay; type: binding
Human recombinant FAP [2] = molecular target: T1, Human recombinant FAP; assay: FRET-based FAP protease activity assay; type: biochemical; design: purchased R&D systems 3715-SE
[3] = molecular target: T2, FAP-expressing human WI-38 fibroblasts (Homo sapiens, UniProt Q12884); assay: Competitive FACS binding assay
T2 construct: FAP-expressing human WI-38 fibroblasts (ECACC) were cultured in EMEM; host or cells: WI-38 human fibroblasts
Protocol: Cells were analyzed in an Attune NxT flow cytometer. […] […].
Cells were analyzed in an Attune NxT flow cytometer. […]

in vivo = settings: female, athymic nude, mouse, iv
[4] = pIC50 Category (activity), Recombinant human FAP
[5] = pIC50 Category (Activity), FRET-peptide substrate, 37° C.

T2 sequence (Q12884 whole entry): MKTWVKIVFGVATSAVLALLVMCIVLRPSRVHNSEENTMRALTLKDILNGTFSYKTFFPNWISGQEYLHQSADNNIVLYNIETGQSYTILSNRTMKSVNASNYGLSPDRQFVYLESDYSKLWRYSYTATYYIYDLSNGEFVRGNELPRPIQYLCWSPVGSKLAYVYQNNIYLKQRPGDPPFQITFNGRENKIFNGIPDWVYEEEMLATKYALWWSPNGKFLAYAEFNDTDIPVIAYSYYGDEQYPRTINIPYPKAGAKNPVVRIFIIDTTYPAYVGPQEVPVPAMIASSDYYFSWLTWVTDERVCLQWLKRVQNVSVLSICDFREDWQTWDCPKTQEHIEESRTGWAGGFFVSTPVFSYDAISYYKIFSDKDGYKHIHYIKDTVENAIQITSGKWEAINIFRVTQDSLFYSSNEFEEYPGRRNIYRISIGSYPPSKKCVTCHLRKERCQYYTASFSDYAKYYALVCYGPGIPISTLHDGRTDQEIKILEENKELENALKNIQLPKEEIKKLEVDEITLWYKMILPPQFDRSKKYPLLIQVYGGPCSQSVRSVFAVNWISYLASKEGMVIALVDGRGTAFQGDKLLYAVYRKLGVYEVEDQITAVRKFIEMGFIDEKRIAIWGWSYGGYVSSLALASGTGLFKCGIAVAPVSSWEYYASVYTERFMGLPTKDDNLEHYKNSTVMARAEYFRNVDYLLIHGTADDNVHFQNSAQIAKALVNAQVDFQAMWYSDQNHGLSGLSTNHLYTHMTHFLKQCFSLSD
T1 sequence (Q12884 whole entry): as above

Kd (Human recombinant FAP [1]): < 10 nM
IC50 (Human recombinant FAP [2]; [4]): < 10 nM
IC50 [3]: < 10 nM
tissue uptake at 0.25 h (in vivo; blood pool surrogate (BPS)): 2.72 %ID/g
tissue uptake at 1 h (in vivo; blood pool surrogate (BPS)): 0.68 %ID/g
tissue uptake at 3 h (in vivo; blood pool surrogate (BPS)): 0.14 %ID/g
tissue uptake at 0.25 h (in vivo; kidneys): 37.3 %ID/g
tissue uptake at 1 h (in vivo; kidneys): 5.61 %ID/g
tissue uptake at 3 h (in vivo; kidneys): 0.42 %ID/g
tissue uptake at 0.25 h (in vivo; tumor): 7.48 %ID/g
tissue uptake at 1 h (in vivo; tumor): 8.9 %ID/g
tissue uptake at 3 h (in vivo; tumor): 9.53 %ID/g
Compound: CCCCNC(=O)N[C@H]1CSCc2cc(CSCCNC(=O)CN3CCN(CC(=O)O)CCN(CC(=O)O)CC3)cc(c2)CSCC(C(=O)O)NC(=O)[C@H](Cc2ccccc2)NC(=O)[C@H](CCC(N)=O)NC(=O)[C@H]([C@@H](C)O)NC(=O)[C@@H]2CCCN2C(=O)[C@@H]2CCCN2C1=O (stereo partly drawn) [3BP-5210, nBu-CAyl-[Cys(tMeBn(NOTA-AET))-Pro-Pro-Thr-Gln-Phe-Cys]-OH]

Kd (Human recombinant FAP [1]): < 10 nM
IC50 (Human recombinant FAP [2]; pIC50 Category (Activity), FRET-based FAP protease activity assay, recombinant human FAP, 37° C.): < 10 nM
IC50 [3]: < 10 nM
Compound: CCCCCC(=O)N[C@H]1CSCc2cc(CSCCNC(=O)CN3CCN(CC(=O)O)CCN(CC(=O)O)CCN(CC(=O)O)CC3)cc(c2)CSC[C@@H](C(=O)O)NC(=O)[C@H](Cc2ccccc2)NC(=O)[C@H](CCC(N)=O)NC(=O)[C@H]([C@@H](C)O)NC(=O)[C@@H]2C[C@@H](O)CN2C(=O)[C@@H]2CCCN2C1=O [3BP-3679, Hex-[Cys(tMeBn(DOTA-AET))-Pro-Hyp-Thr-Gln-Phe-Cys]-OH]

The remaining lines, values behind:

Compound: CCCCNC(=O)N[C@H]1CSCc2cc(CSCCNC(=O)CCP(=O)(O)CN3CCN(CP(=O)(O)CO)CCN(CP(=O)(O)CO)CC3)cc(c2)CSCC(C(=O)O)NC(=O)[C@H](Cc2ccccc2)NC(=O)[C@H](CCC(=O)O)NC(=O)[C@H]([C@@H](C)O)NC(=O)[C@@H]2CCCN2C(=O)[C@@H]2CCCN2C1=O (stereo partly drawn) [3BP-4778, nBu-CAyl-[Cys(tMeBn(NOPO-AET))-Pro-Pro-Thr-Glu-Phe-Cys]-OH] ({NHBu-CO}-CPPTEF[ξC]-OH; linker 1-7 via X7)
Kd (Human recombinant FAP [1]): < 10 nM
IC50 (Human recombinant FAP [2]; [4]): < 10 nM
IC50 [3]: < 10 nM
tissue uptake at 0.25 h (in vivo; blood pool surrogate (BPS), uptake BPS 0.25 h, ^68Ga-labeled, BPS (blood pool surrogate), PET/CT, 0.25 h post tracer injection): 1.61 %ID/g
tissue uptake at 1 h (in vivo; blood pool surrogate (BPS), uptake BPS 1 h, ^68Ga-labeled, BPS (blood pool surrogate), PET/CT, 1 h post tracer injection): 0.77 %ID/g
tissue uptake at 3 h (in vivo; blood pool surrogate (BPS), uptake BPS 3 h, ^68Ga-labeled, BPS (blood pool surrogate), PET/CT, 3 h post tracer injection): 0.33 %ID/g
tissue uptake at 0.25 h (in vivo; kidneys, uptake Kidneys 0.25 h, ^68Ga-labeled, PET/CT, 0.25 h post tracer injection): 3.38 %ID/g
tissue uptake at 1 h (in vivo; kidneys, uptake Kidneys 1 h, ^68Ga-labeled, PET/CT, 1 h post tracer injection): 1.81 %ID/g
tissue uptake at 3 h (in vivo; kidneys, uptake Kidneys 3 h, ^68Ga-labeled, PET/CT, 3 h post tracer injection): 1 %ID/g
tissue uptake at 0.25 h (in vivo; tumor, uptake Tumor 0.25 h, ^68Ga-labeled, HEK-FAP tumor, PET/CT, 0.25 h post tracer injection): 3.66 %ID/g
tissue uptake at 1 h (in vivo; tumor, uptake Tumor 1 h, ^68Ga-labeled, HEK-FAP tumor, PET/CT, 1 h post tracer injection): 4.06 %ID/g
tissue uptake at 3 h (in vivo; tumor, uptake Tumor 3 h, ^68Ga-labeled, HEK-FAP tumor, PET/CT, 3 h post tracer injection): 4.45 %ID/g

Compound: CC(C)CCC(=O)N[C@H]1CSCc2cc(CSCCNC(=O)CN3CCN(CC(=O)O)CCN(CC(=O)O)CCN(CC(=O)O)CC3)cc(c2)CSC[C@@H](C(=O)O)NC(=O)[C@H](Cc2ccccc2)NC(=O)[C@H](CCC(N)=O)NC(=O)[C@H]([C@@H](C)O)NC(=O)[C@@H]2CCCN2C(=O)[C@@H]2CCCN2C1=O [3BP-3907, iHex-[Cys(tMeBn(DOTA-AET))-Pro-Pro-Thr-Gln-Phe-Cys]-OH]
Kd (Human recombinant FAP [1]): < 10 nM
pKD Category (Human recombinant FAP [1]; Biacore assay): A (Category A stands for pKD values >8.0)
IC50 (Human recombinant FAP [2]; [5]): < 10 nM
IC50 [3]: < 10 nM

Compound: CCCCNC(=O)N[C@H]1CSCc2cc(cc(CN3CCN(C(=O)CN4CCN(CC(=O)O)CCN(CC(=O)O)CCN(CC(=O)O)CC4)CC3)c2)CSC[C@@H](C(=O)O)NC(=O)[C@H](Cc2ccccc2)NC(=O)[C@H](CCC(N)=O)NC(=O)[C@H]([C@@H](C)O)NC(=O)[C@@H]2CCCN2C(=O)[C@@H]2CCCN2C1=O [3BP-4564, nBu-CAyl-[Cys(tMeBn(DOTA-PP))-Pro-Pro-Thr-Gln-Phe-Cys]-OH]
Kd (Human recombinant FAP [1]): < 10 nM
IC50 (Human recombinant FAP [2]; [5]): < 10 nM
IC50 [3]: < 10 nM

Compound: CCCCNC(=O)N[C@H]1CSCc2cc(cc(CN3CCN(C(=O)CN4CCN(CC(=O)O)CCN(CC(=O)O)CCN(CC(=O)O)CC4)CC3)c2)CSC[C@@H](C(N)=O)NC(=O)[C@H](Cc2ccccc2)NC(=O)[C@H](CCC(N)=O)NC(=O)[C@H]([C@@H](C)O)NC(=O)[C@@H]2CCCN2C(=O)[C@@H]2CCCN2C1=O [3BP-4565, nBu-CAyl-[Cys(tMeBn(DOTA-PP))-Pro-Pro-Thr-Gln-Phe-Cys]-NH2]
Kd (Human recombinant FAP [1]): < 10 nM
IC50 (Human recombinant FAP [2]; [5]): < 10 nM
IC50 [3]: < 10 nM
